Reference: patent US6610846B1, “Heteroaromatic glucokinase activators” (Hoffman-La Roche Inc., priority 1999, dated 2003)

Compared with `O=C(Nc1nccs1)C(CC1CCCC1)c1cccc(S(=O)(=O)C(F)(F)F)c1` (centres unmarked) [Example 69, 3-Cyclopentyl-N-thiazol-2-yl-2-(3-trifluoromethanesulfonyl-phenyl)-propionamide], `O=C(Nc1nccs1)C(CC1CCCC1)c1cccc(C(F)(F)F)c1` (centres unmarked) [Example 88, 3-Cyclopentyl-N-thiazol-2-yl-2-(3-trifluoromethyl-phenyl)-propionamide] is higher in melting point: 61 to 64 °C for the first, 134 to 136 °C for the second.

Compared with `O=C(Nc1nccs1)C(CC1CCCC1)c1ccc(C(F)(F)F)c(F)c1` (centres unmarked) [Example 70, 3-Cyclopentyl-2-(3-fluoro-4-trifluoromethyl-phenyl)-N-thiazol-2-yl-propionamide], `O=C(Nc1nccs1)C(CC1CCCC1)c1ccc(F)c(C(F)(F)F)c1` (centres unmarked) [Example 87(A), 3-Cyclopentyl-2-(4-fluoro-3-trifluoromethyl-phenyl)-N-thiazol-2-yl-propionamide] is lower in melting point: 194 to 195 °C for the first, 125 to 127 °C for the second.

Compared with `CS(=O)(=O)c1ccc(C(CC2CCCC2)C(=O)Nc2ccc(Br)cn2)cc1Br` (centres unmarked) [Example 74, 2-(3-Bromo-4-methanesulfonyl-phenyl)-N-(5-bromo-pyridin-2-yl)-3-cyclopentyl-propionamide], `CS(=O)(=O)c1ccc(C(CC2CCCC2)C(=O)Nc2ccncn2)cc1Br` (centres unmarked) [Example 148(A), 2-(3-Bromo-4-methanesulfonyl-phenyl)-3-cyclopentyl-N-pyrimidin-4-yl-propionamide] is lower in melting point: 83 to 86 °C for the first, 75 to 80 °C for the second.

Compared with `CCS(=O)(=O)c1ccc(C(CC2CCCC2)C(=O)Nc2ccccn2)cc1` (centres unmarked) [Example 78, 3-Cyclopentyl-2-(4-ethanesulfonyl-phenyl)-N-pyridin-2-yl-propionamide], `CS(=O)(=O)c1ccc(C(CC2CCCC2)C(=O)Nc2ccccn2)cc1F` (centres unmarked) [Example 136, 3-Cyclopentyl-2-(3-fluoro-4-methanesulfonyl-phenyl)-N-pyridin-2-yl-propionamide] is lower in melting point: 144 to 145 °C for the first, 76 to 79 °C for the second.

First: CS(=O)(=O)c1ccc(C(CC2CCCC2)C(=O)Nc2nccs2)cc1S(C)(=O)=O (centres unmarked) [Example 79, 2-(3,4-Bis-methanesulfonyl-phenyl)-3-cyclopentyl-N-thiazol-2-yl-propionamide]
Second: NS(=O)(=O)c1ccc(C(CC2CCCC2)C(=O)Nc2nccs2)cc1 (centres unmarked) [Example 82, 3-Cyclopentyl-2-(4-sulfamoyl-phenyl)-N-thiazol-2-yl-propionamide]
The melting point of the first is lower: 104 to 107 °C for the first, 179 to 181 °C for the second.

First: O=C(Nc1nccnn1)C(CC1CCCC1)c1ccc(Cl)c(Cl)c1 (centres unmarked) [Example 81, 3-Cyclopentyl-2-(3,4-dichlorophenyl)-N-[1,2,4]triazin-3-yl-propionamide]
Second: O=C(Nc1cnccn1)C(CC1CCCC1)c1ccc(Cl)c(Cl)c1 (centres unmarked) [Example 104, 3-Cyclopentyl-2-(3,4-dichloro-phenyl)-N-pyrazin-2-yl-propionamide]
The melting point of the first is higher: 81 to 83 °C for the first, 46.5 to 51.3 °C for the second.

First: O=C(Nc1nncs1)C(CC1CCCC1)c1ccc(Cl)c(Cl)c1 (centres unmarked) [Example 83, 3-Cyclopentyl-2-(3,4-dichlorophenyl)-N-[1,3,4]thiadiazol-2-yl-propionamide]
Second: O=C(Nc1ccc(Br)cn1)[C@H](CC1CCCC1)c1ccc(Cl)c(Cl)c1 [Example 105, N-(5-Bromo-pyridin-2-yl)-3-cyclopentyl-2(R)-(3,4-dichloro-phenyl)-propionamide]
The melting point of the first is lower: 90 to 91 °C for the first, 107.3 to 109.9 °C for the second.

First: N#Cc1ccc(C(CC2CCCC2)C(=O)Nc2nccs2)cc1 (centres unmarked) [Example 84(A), 2-(4-Cyano-phenyl)-3-cyclopentyl-N-thiazol-2-yl-propionamide]
Second: O=C(Nc1nccs1)C(CC1CCCC1)c1ccc(O)cc1 (centres unmarked) [Example 116, 3-Cyclopentyl-2-(4-hydroxy-phenyl)-N-thiazol-2-yl-propionamide]
The melting point of the first is lower: 64 to 66 °C for the first, 198 to 200 °C for the second.

First: CCCCS(=O)(=O)c1ccc(C(CC2CCCC2)C(=O)Nc2nccs2)cc1 (centres unmarked) [Example 86(A), 2-[4-(Butane-1-sulfonyl)-phenyl]-3-cyclopentyl-N-thiazol-2-yl-propionamide]
Second: COc1ccc(C(CC2CCCC2)C(=O)Nc2nccs2)cc1 (centres unmarked) [Example 115, 3-Cyclopentyl-2-(4-methoxy-phenyl)-N-thiazol-2-yl-propionamide]
The melting point of the first is lower: 163 to 165 °C for the first, 166 to 167 °C for the second.

First: CS(=O)(=O)c1ccc(C(CC2CCCC2)C(=O)Nc2ccccn2)cc1C(F)(F)F (centres unmarked) [Example 90, 3-Cyclopentyl-2-(4-methanesulfonyl-3-trifluoromethyl-phenyl)-N-pyridin-2-yl-propionamide]
Second: CS(=O)(=O)c1ccc(C(CC2CCCC2)C(=O)Nc2ccnc(=O)[nH]2)cc1C(F)(F)F (centres unmarked) [Example 155(A), 3-Cyclopentyl-2-(4-methanesulfonyl-3-trifluoromethyl-phenyl)-N-(2-oxo-2,3-dihydro-pyrimidin-4-yl)-propionamide]
The melting point of the first is lower: 86 to 89 °C for the first, 236 to 238 °C for the second.

First: O=C(Nc1ccc(C(F)(F)F)cn1)[C@H](CC1CCCC1)c1ccc(Cl)c(Cl)c1 [Example 101, 3-Cyclopentyl-2(R)-(3,4-dichloro-phenyl)-N-(5-trifluoromethyl-pyridin-2-yl)-propionamide]
Second: CNC(=O)c1ccc(NC(=O)C(CC2CCCC2)c2ccc(Cl)c(Cl)c2)nc1 (centres unmarked) [Example 103, 6-[3-Cyclopentyl-2-(3,4-dichloro-phenyl)-propionylamino]-N-methyl-nicotinamide]
The melting point of the first is lower: 113.8 to 117.5 °C for the first, 229.1 to 231.7 °C for the second.

First: O=C(Nc1nccs1)C(CC1CCCC1)c1cccc([N+](=O)[O-])c1 (centres unmarked) [Example 109, 3-Cyclopentyl-2-(3-nitrophenyl)-N-thiazol-2-yl-propionamide]
Second: O=C(Nc1nccs1)C(CC1CCCC1)c1cccc(O)c1 (centres unmarked) [Example 111, 3-Cyclopentyl-2-(3-hydroxy-phenyl)-N-thiazol-2-yl-propionamide]
The melting point of the first is lower: 171 to 174 °C for the first, 177 to 179 °C for the second.

Compared with `COc1cccc(C(CC2CCCC2)C(=O)Nc2nccs2)c1` (centres unmarked) [Example 110, 3-Cyclopentyl-2-(3-methoxy-phenyl)-N-thiazol-2-yl-propionamide], `COc1ccc(C(CC2CCCC2)C(=O)Nc2nccs2)cc1F` (centres unmarked) [Example 118, 3-Cyclopentyl-2-(3-fluoro-4-methoxy-phenyl)-N-thiazol-2-yl-propionamide] is higher in melting point: 44 to 45 °C for the first, 51 to 53 °C for the second.

First: COc1ccc(C(CC2CCCC2)C(=O)Nc2nccs2)cc1OC (centres unmarked) [Example 113, 3-Cyclopentyl-2-(3,4-dimethoxy-phenyl)-N-thiazol-2-yl-propionamide]
Second: O=C(Nc1nccs1)C(CC1CCCC1)c1ccc(O)c(O)c1 (centres unmarked) [Example 114, 3-Cyclopentyl-2-(3,4-dihydroxy-phenyl)-N-thiazol-2-yl-propionamide]
The melting point of the first is lower: 50 to 52 °C for the first, 170 to 173 °C for the second.

First: COC(=O)c1ccc(C(CC2CCCC2)C(=O)Nc2nccs2)cc1 (centres unmarked) [Example 117, 4-[2-Cyclopentyl-1-(thiazol-2-ylcarbamoyl)-ethyl]-benzoic acid methyl ester]
Second: O=C(Nc1nccs1)C(CC1CCCC1)c1ccc(O)c(F)c1 (centres unmarked) [Example 119, 3-Cyclopentyl-2-(3-fluoro-4-hydroxy-phenyl)-N-thiazol-2-yl-propionamide]
The melting point of the first is lower: 54 to 56 °C for the first, 199 to 201 °C for the second.

First: O=C(O)c1ccc(NC(=O)C(CC2CCCC2)c2cccc(Cl)c2)nc1 (centres unmarked) [Example 120, 6-[2-(3-Chloro-phenyl)-3-cyclopentyl-propionylamino]-nicotinic acid]
Second: CSc1ccc(C(CC2CCCC2)C(=O)Nc2ccc([N+](=O)[O-])cn2)cc1C(F)(F)F (centres unmarked) [Example 154(A), 3-Cyclopentyl-2-(4-methylsulfanyl-3-trifluoromethyl-phenyl)-N-(5-nitro-pyridin-2-yl)-propionamide]
The melting point of the first is higher: 251 to 255 °C for the first, 109 to 110 °C for the second.

First: CSc1ccc([C@@H](CC2CCCC2)C(=O)Nc2cnccn2)cc1 [Example 126, 3-Cyclopentyl-2(R)-(4-methylsulfanyl-phenyl)-N-pyrazin-2-yl-propionamide]
Second: CS(=O)(=O)c1ccc([C@@H](CC2CCCC2)C(=O)Nc2cnccn2)cc1 [Example 127, 3-Cyclopentyl-2(R)-(4-methylsulfonyl-phenyl)-N-pyrazin-2-yl-propionamide]
The melting point of the first is higher: 128 to 130 °C for the first, 75 to 80 °C for the second.

First: CS(=O)(=O)c1ccc(C(CC2CCCC2)C(=O)Nc2ncc(Br)s2)cc1 (centres unmarked) [Example 132, N-(5-Bromo-thiazol-2-yl)-3-cyclopentyl-2-(4-methanesulfonyl-phenyl)-propionamide]
Second: CS(=O)(=O)c1ccc(C(CC2CCCC2)C(=O)Nc2ncc(C(N)=O)s2)cc1 (centres unmarked) [Example 134, 2-[3-Cyclopentyl-2-(4-methanesulfonyl-phenyl)-propionylamino]-thiazole-5-carboxylic acid amide]
The melting point of the first is lower: 73 to 75 °C for the first, 155 to 160 °C for the second.

First: CS(=O)(=O)c1ccc(C(CC2CCCC2)C(=O)Nc2ccncn2)cc1C#N (centres unmarked) [Example 151, 2-(3-Cyano-4-methanesulfonyl-phenyl)-3-cyclopentyl-N-pyrimidin-4-yl-propionamide]
Second: CS(=O)(=O)c1ccc(C(CC2CCCC2)C(=O)Nc2cnccn2)cc1C#N (centres unmarked) [Example 153, 2-(3-Cyano-4-methanesulfonyl-phenyl)-3-cyclopentyl-N-pyrazin-2-yl-propionamide]
The melting point of the first is lower: 79 to 84 °C for the first, 88 to 93 °C for the second.

Molecule `Cc1nccc(NC(=O)C(CC2CCCC2)c2ccc(S(C)(=O)=O)c(C#N)c2)n1` (centres unmarked) [Example 152, 2-(3-Cyano-4-methanesulfonyl-phenyl)-3-cyclopentyl-N-(2-methyl-pyrimidin-4-yl)-propionamide] has a melting point of 89 to 94 °C.

`CS(=O)(=O)c1ccc([C@@H](CC2CCCC2)C(=O)Nc2cc[nH]c(=O)n2)cc1Cl` [Example 145, 2(R)-(3-Chloro-4-methanesulfonyl-phenyl)-3-cyclopentyl-N-(2-oxo-1,2-dihydro-pyrimidin-4-yl)-propionamide] showed a melting point greater than 200 °C.
For `CS(=O)(=O)c1ccc(C(CC2CCCC2)C(=O)Nc2ncc[nH]2)cc1Br` (centres unmarked) [Example 150, 2-(3-Bromo-4-methanesulfonyl-phenyl)-3-cyclopentyl-N-(1 H-imidazol-2-yl)-propionamide], the melting point was > 210 °C (dec.).
